Assay results taken from patent US20050118099A1, “Thiol-mediated drug attachment to targeting peptides” (priority 2003, published 2005).

Tests used:
[1] = molecular target: human somatostatin receptor SSTR2 of IMR-32 human neuroblastoma cells (human) (UniProt P30874); assay: uptake of applied cpm by SSTR+ human cancer cells, 20-24 h at 37 C, gamma counting
[2] = molecular target: human somatostatin receptor SSTR2 of IMR-32 human neuroblastoma cells (human) (UniProt P30874); assay: uptake of applied cpm by SSTR+ human cancer cells; competitor somatostatin at 1000X molar excess
growth hormone = assay: Serum growth hormone levels (ELISA) in IMR-32 mouse xenograft model; type: in vivo; details: AE at 75% of the MTD, potential toxicity to the pituitary gland
Procedure: FIG. 4 is a line graph depicting growth hormone levels in an IMR-32 mouse xenograft model following administration of AE (◯), 1×CP1-FKMMAE (□), or 3×CP1-FKMMAE (⋄). The control sample depicts growth hormone levels in the absence of treatment (X). Arrows indicate the times of administration, as described in Example 5. Serum growth hormone levels were determined by ELISA to assess potential toxicity to the pituitary gland.
(§1) The tumoricidal effects of CP1-FKMMAE were evaluated in a mouse xenograft model. Tumors were established in nude mice by subcutaneous injection of IMR-32 cells. A multiple dose regimen was evaluated based on prior studies using AE, which determined a MTD following four administrations of 0.4 mg/kg. Due to limited availability, AE was used at 75% of the MTD. CP1-FKMMAE was administered at 1× and 3× molar equivalents of AE according to the same dosing schedule. Tumor volume, animal weight, and serum growth hormone levels were assessed for each treatment group.

IMR-32 cells = assay: Tumor growth inhibition in IMR-32 mouse xenograft model; type: in vivo; details: AE at 75% of the MTD, multiple dose regimen
Procedure: (§2) FIGS. 3A-3B are line graphs depicting tumor growth inhibition in an IMR-32 mouse xenograft model following administration of AE (◯), 1×CP1-FKMMAE (□), or 3×CP1-FKMMAE (⋄). The control sample depicts uninhibited tumor growth (X). Arrows indicate the times of administration, as described in Example 5.
as §1

[3] = following four administrations; prior studies; cited from earlier work
[4] = Animal weight in IMR-32 mouse xenograft model; type: in vivo; details: AE at 75% of the MTD
Procedure: as §2, §1

[5] = molecular target: human somatostatin receptor SSTR2 of IMR-32 human neuroblastoma cells (human) (UniProt P30874); assay: competition with Indium-111-octreotide on IMR-32 membrane extracts, filter assay, gamma counting

Chain of UniProt P30874 (P30874 whole entry): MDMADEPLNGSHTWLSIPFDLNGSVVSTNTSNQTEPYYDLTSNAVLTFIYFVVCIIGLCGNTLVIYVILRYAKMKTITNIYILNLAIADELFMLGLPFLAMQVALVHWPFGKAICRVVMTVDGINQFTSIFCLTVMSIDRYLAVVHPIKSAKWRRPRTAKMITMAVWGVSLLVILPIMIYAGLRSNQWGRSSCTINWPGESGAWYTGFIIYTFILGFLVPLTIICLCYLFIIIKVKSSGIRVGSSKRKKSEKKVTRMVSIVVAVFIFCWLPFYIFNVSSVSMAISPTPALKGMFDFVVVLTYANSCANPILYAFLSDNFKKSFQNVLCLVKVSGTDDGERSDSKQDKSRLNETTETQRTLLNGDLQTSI

Indium-111-octreotide (peptide) showed a Percentage (%) Uptake [1] of 4.4% and a Percentage (%) Uptake in the Presence of 1000X SST [2] of 0.1%.

In the case of `CC[C@H](C)[C@@H]([C@@H](CC(=O)N1CCC[C@H]1[C@H](OC)[C@@H](C)C(=O)N[C@H](C)[C@@H](O)c1ccccc1)OC)N(C)C(=O)[C@@H](NC(=O)[C@H](C(C)C)N(C)C)C(C)C` [AE, Auristatin E], the “Serum growth hormone levels” value (growth hormone) is listed as “relative stability”, the Mean tumor volume (IMR-32 cells) is listed as “reduction in mean tumor volume” and the “MTD (maximal tolerable dose)” value [3] is listed as 0.4 mg/kg. The Mean mouse weight [4] was “slightly increased”.

Compound octreotide (unlabeled) (peptide) has an IC50 [5] of 3 nM.
